Test results from PubChem BioAssay (NCI).
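Where inhibition never reached the appropriate level, the endpoint shown equals the highest concentration tested. Otherwise, values were interpolated linearly from a five-concentration, 48-hour dose response in 96-well plates. The concentration for 50% growth inhibition is given as GI50. TGI denotes the concentration required for complete inhibition of growth.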

Experiments:
Assay in all cases: growth of human tumour cells (NCI), 48 h
A549 NSCLC = tested on: A549 NSCLC
ACHN renal = tested on: ACHN renal
HCT-116 colon = tested on: HCT-116 colon
HOP-92 NSCLC = tested on: HOP-92 NSCLC
HT29 colon = tested on: HT29 colon
OVCAR-3 ovarian = tested on: OVCAR-3 ovarian
RXF 393 renal = tested on: RXF 393 renal
SNB-19 CNS = tested on: SNB-19 CNS
SR leukemia = tested on: SR leukemia
TK-10 renal = tested on: TK-10 renal

Structure (SMILES) | TGI (A549 NSCLC) | TGI (ACHN renal) | TGI (HCT-116 colon) | TGI (HOP-92 NSCLC) | TGI (HT29 colon) | TGI (OVCAR-3 ovarian) | TGI (RXF 393 renal) | TGI (SNB-19 CNS) | TGI (SR leukemia) | TGI (TK-10 renal) | GI50 (ACHN renal) | GI50 (HCT-116 colon) | GI50 (HOP-92 NSCLC) | GI50 (HT29 colon) | GI50 (RXF 393 renal) | GI50 (SR leukemia) | GI50 (A549 NSCLC) | GI50 (OVCAR-3 ovarian) | GI50 (SNB-19 CNS) | GI50 (TK-10 renal)
COc1cc(S(=O)(=O)Nc2nc(-c3ccc(N4C(=O)/C(=C/c5ccccc5[N+](=O)[O-])N=C4c4ccccc4)cc3)cs2)ccc1Cl | > 100 µM | > 100 µM | > 100 µM | > 100 µM | > 100 µM | > 100 µM | > 100 µM | > 100 µM | > 100 µM | > 100 µM | – | – | – | – | – | – | – | – | – | –
Cl/C(=C\C=Nc1ccc(I)cc1)c1ccc2ccccc2c1 | > 100 µM | 29.9 µM | 33.2 µM | > 85 µM | > 100 µM | 30.9 µM | 61.8 µM | 39.7 µM | 19 µM | 49.6 µM | – | – | – | – | – | – | – | – | – | –
COC(=O)Nc1nc2ccc(NC(=O)c3cccs3)cc2[nH]1 | > 100 µM | > 100 µM | > 100 µM | 40.7 µM | > 100 µM | 47.3 µM | 86.7 µM | > 100 µM | – | > 100 µM | – | – | – | – | – | – | – | – | – | –
CC(C)(C)OC(=O)NC1CCC(C(C)(C)C)CC1 (configuration not stated) | > 100 µM | – | > 100 µM | – | > 87.3 µM | > 100 µM | > 92.2 µM | > 100 µM | – | – | – | – | – | – | – | – | – | – | – | –
C[C@]12CC[C@H](O)CC1=CC[C@@H]1[C@@H]2CC[C@]2(C)C(=N/O)/C(=C/c3ccc([N+](=O)[O-])cc3)C[C@@H]12 | 17.7 µM | 15.1 µM | 15.7 µM | 14.9 µM | 23.5 µM | 5.06 µM | 15.6 µM | 22.4 µM | 22.5 µM | – | – | – | – | – | – | – | – | – | – | –
CCCC(=O)O.CCCC(=O)O.CCCC(=O)O.CCCC(=O)O.[Rh].[Rh] | – | 0.212 µM | 0.0433 µM | 0.476 µM | 0.126 µM | – | 0.052 µM | – | 1.06 µM | – | 0.0451 µM | 0.0198 µM | 0.211 µM | 0.0334 µM | 0.0224 µM | 0.0586 µM | – | – | – | –
CC(=O)NNC(=O)C1CCCCN1 (configuration not stated) | > 100 µM | > 100 µM | > 100 µM | > 100 µM | > 100 µM | > 100 µM | > 100 µM | > 100 µM | > 100 µM | > 100 µM | – | – | – | – | – | – | – | – | – | –
C=CCSSCC=C | > 100 µM | > 100 µM | > 100 µM | > 100 µM | > 100 µM | > 100 µM | > 74 µM | > 100 µM | 50.2 µM | > 100 µM | – | – | – | – | – | – | – | – | – | –
C=C1C(=O)OC2CC1CCC1(C)OC1CCC(C)=CCCC2(C)O (configuration not stated) | 26.9 µM | – | 8.7 µM | 5.89 µM | 10.7 µM | 9.3 µM | 3.61 µM | 39.9 µM | – | – | – | – | – | – | – | – | – | – | – | –
O=C1OCc2cc3cc4c(cc3c(-c3ccc5c(c3)OCO5)c21)OCO4 (tested in a mixture with another compound) | – | – | 13.7 µM | 43.5 µM | > 100 µM | 21.4 µM | 22.5 µM | > 100 µM | > 100 µM | 50.8 µM | – | – | – | – | – | – | – | – | – | –
CN1CC(CNC(=O)OCc2ccccc2)CC2c3cccc4c3c(cn4C)CC21 (configuration not stated) | 5.24 µM | 5.58 µM | 4.18 µM | 5.95 µM | 3.27 µM | 7.79 µM | 3.2 µM | 3.99 µM | – | 3.67 µM | 2.29 µM | 1.72 µM | 1.72 µM | 1.4 µM | 1.74 µM | – | 2.22 µM | 2.63 µM | 1.8 µM | 1.92 µM
Br/C(=N\Nc1nn[nH]n1)c1ccncc1 | > 100 µM | > 100 µM | > 100 µM | > 100 µM | > 100 µM | > 100 µM | > 100 µM | > 100 µM | > 100 µM | > 100 µM | – | – | – | – | – | – | – | – | – | –
O=C(Nc1ccc(Cl)c(Cl)c1)N1N=C2c3ccccc3CCC2C1c1ccc(Cl)cc1 (configuration not stated) | > 100 µM | > 100 µM | > 100 µM | > 100 µM | > 100 µM | > 100 µM | > 100 µM | > 100 µM | > 100 µM | > 100 µM | – | – | – | – | – | – | – | – | – | –
O=C(COc1ccc(Cl)c(Cl)c1)N(Cc1ccccc1)Cc1ccc[n+](Cc2ccc(Cl)cc2S(=O)(=O)F)c1 | > 100 µM | > 100 µM | > 100 µM | > 100 µM | > 100 µM | > 100 µM | > 100 µM | > 100 µM | 52.4 µM | > 100 µM | – | – | – | – | – | – | – | – | – | –
O=C(Oc1ccc(Cl)cc1[N+](=O)[O-])c1ccccc1 | > 100 µM | > 100 µM | > 100 µM | > 100 µM | > 100 µM | > 100 µM | > 100 µM | > 100 µM | > 100 µM | > 100 µM | – | – | – | – | – | – | – | – | – | –
O=C1CCCC2C3CC(CN12)C1CCCCN1C3 (configuration not stated) | > 100 µM | > 100 µM | > 100 µM | > 100 µM | > 100 µM | > 100 µM | > 100 µM | > 100 µM | > 100 µM | > 100 µM | – | – | – | – | – | – | – | – | – | –
Cc1cc(C)nc(SCCc2cccc[n+]2C)n1 | > 100 µM | > 100 µM | > 100 µM | > 100 µM | > 100 µM | > 100 µM | > 100 µM | > 100 µM | – | > 100 µM | – | – | – | – | – | – | – | – | – | –
O=C1C(Cl)C(c2cc3cc(Br)ccc3nc2Cl)N1c1ccc(Cl)cc1 (configuration not stated) | > 25 µM | 11.2 µM | 12.5 µM | 7.2 µM | 19.6 µM | 13.8 µM | 10.6 µM | > 25 µM | 7.46 µM | 13.3 µM | – | – | – | – | – | – | – | – | – | –
COc1c(OC/C=C(\C)CCC=C(C)C)ccc2ccc(=O)oc12 | > 100 µM | > 100 µM | > 100 µM | > 100 µM | > 100 µM | > 100 µM | – | > 100 µM | > 100 µM | > 100 µM | – | – | – | – | – | – | – | – | – | –
CC(C)(C)c1ccc(/C=N/NC(=O)CSCC(=O)N/N=C/c2ccc(C(C)(C)C)cc2)cc1 | 11.6 µM | 13.5 µM | – | 38.9 µM | 3.87 µM | – | 4.29 µM | 17.2 µM | 3.76 µM | 16.6 µM | – | – | – | – | – | – | – | – | – | –
CC[C@]12C=CCN3CC[C@@]4(c5cc(Br)c(OC)cc5N(C)[C@H]4[C@@](O)(C(=O)N[C@@H](Cc4ccc(O)cc4)C(=O)OC)[C@@H]1O)[C@@H]32 | > 100 µM | > 100 µM | > 100 µM | – | 30 µM | 89.7 µM | 38.4 µM | > 100 µM | 46.4 µM | 79.5 µM | – | – | – | – | – | – | – | – | – | –
COc1ccc(OC)c(CC(C)N)c1 (configuration not stated) | > 100 µM | > 100 µM | > 100 µM | – | > 100 µM | > 100 µM | > 100 µM | > 100 µM | – | > 100 µM | – | – | – | – | – | – | – | – | – | –
